# US6004957A, “Sulfonamide inhibitors of aspartyl protease” (Vertex Pharmaceuticals, Incorporated, priority 1998, dated 1999)
# System: HIVIIIb in CCRM-CEM cells
# Assay: Anti-viral potency in CCRM-CEM cells acutely infected with HIVIIIb (method of Meek et al.), extracellular p24 antigen
# Assay type: cell-based, HIV-1
# Details: Human immunodeficiency virus 1, HIV replication, Table VIII, read-out: IC90 Range
# Text: As discussed above, the novel compounds of the present invention are excellent ligands for aspartyl proteases, particularly HIV-1 and HIV-2 proteases. Accordingly, these compounds are capable of targeting and inhibiting late stage events in HIV replication, i.e., the processing of the viral polyproteins by HIV encoded proteases. […] Because aspartyl protease is essential for the production of mature virions, inhibition of that processing effectively blocks the spread of virus by inhibiting the production of infectious virions, particularly from chronically infected cells. […] Other anti-viral assays have confirmed the potency of these compounds.
# Compounds of formula I were tested for their antiviral potency in several virological assays. In the first assay, the compounds were added as a solution in dimethylsulfoxide (DMSO) to a test cell culture of CCRM-CEM cells, a strain of CD4^+ human T-cell lymphoma cells, previously acutely infected with HIVIIIb using standard protocols (see Meek, T. D. et al., "Inhibition of HIV-1 protease in infected T-lymphocytes by synthetic peptide analogues", Nature, 343, p. 90 (1990). Preferred compounds are those which are able to inhibit 90% of viral infectivity at a concentration of 1 μM or less. More preferred compounds are those which are able to inhibit 90% of viral infectivity at a concentration of 100 nM or less.
# The effect of the compounds on inhibiting the replication of the virus was measured by determining the HIV extracellular p24 antigen concentration using a commercial enzyme immunoassay (obtained from Coulter Corporation, Hialeah, Fla.).
structure (smiles),measurement,value
"CC(=O)Nc1ccc(S(=O)(=O)N(CC(C)C)C[C@@H](O)[C@H](Cc2ccccc2)NC(=O)[C@H](CC(N)=O)NC(=O)c2ccc3ccccc3n2)cc1 [Compound 17, (S)-N-1-(1-(S)-Benzyl-3-((4-acetylamino-benzenesulfonyl)-isobutyl-amino)-2-(syn)-hydroxy-propyl)-2-((quinoline-2-carbonyl)-amino)-succinamide]",IC90,101 to 1000 nM
CC(=O)Nc1nc(C)c(S(=O)(=O)N(CC(C)C)C[C@@H](O)[C@H](Cc2ccccc2)NC(=O)[C@H](CC(N)=O)NC(=O)c2ccc3ccccc3n2)s1 [Compound 18],IC90,101 to 1000 nM
"CC(=O)Nc1cccc(S(=O)(=O)N(CC(C)C)C[C@@H](O)[C@H](Cc2ccccc2)NC(=O)[C@H](CC(N)=O)NC(=O)c2ccc3ccccc3n2)c1 [Compound 19, (S)-N-1-(3-((3-Acetylamino-benzenesulfonyl)-isobutyl-amino)-(1S,2 syn)-1-benzyl-2-hydroxy-propyl)-2-((quinoline-2-carbonyl)-amino)-succinamide]",IC90,101 to 1000 nM
"CC(C)CN(C[C@@H](O)[C@H](Cc1ccccc1)NC(=O)[C@H](CC(N)=O)NC(=O)c1ccc2ccccc2n1)S(=O)(=O)c1cccc2nonc12 [Compound 20, (S)-N-1-(3-((Benzo(1,2,5)oxadiazole-4-sulfonyl)-isobutyl-amino)-(1S,2 syn)-1-benzyl-2-hydroxy-propyl)-2-((quinoline-2-carbonyl)-amino)-succinamide]",IC90,< 100 nM
"CC(C)CN(C[C@@H](O)[C@H](Cc1ccccc1)NC(=O)[C@H](CC(N)=O)NC(=O)c1ccc2ccccc2n1)S(=O)(=O)N(C)C [Compound 21, N-1-((1S-2 syn)-1-Benzyl-2-hydroxy-3-(1-isobutyl-3,3-dimethylsulfonylurea)-propyl)-2-((quinoline-2-carbonyl)-amino)-succinamide]",IC90,< 100 nM
CC(=O)Nc1ccc(S(=O)(=O)N(CC(C)C)C[C@@H](O)[C@H](Cc2ccccc2)NC(=O)[C@@H](NC(=O)OCc2ccccn2)C(C)C)cc1 [Compound 22],IC90,101 to 1000 nM
C=CCOC(=O)N[C@@H](Cc1ccccc1)[C@H](O)CN(CC(C)C)S(=O)(=O)c1ccc(NC(C)=O)cc1 [Compound 27],IC90,1000 to 10000 nM
CC(=O)Nc1ccc(S(=O)(=O)N(CC(C)C)C[C@@H](O)[C@H](Cc2ccccc2)NC(=O)OC(C)C)cc1 [Compound 29],IC90,1000 to 10000 nM
CC(C)CN(C[C@@H](O)[C@H](Cc1ccccc1)NC(=O)OC(C)(C)C)S(=O)(=O)c1ccc(F)cc1 [Compound 32],IC90,1000 to 10000 nM
"CC(C)CN(C[C@@H](O)[C@H](Cc1ccccc1)NC(=O)O[C@H]1CCOC1)S(=O)(=O)c1ccc(F)cc1 [Compound 35, 4-Fluoro-N-((2 syn,3S)-2-hydroxy-4-phenyl-3-((S)-tetrahydrofuran-3-yloxycarbonylamino)-butyl)-N-isobutyl-benzenesulfonamide]",IC90,101 to 1000 nM
"CC(C)CN(C[C@@H](O)[C@H](Cc1ccccc1)NC(=O)O[C@H]1CCOC1)S(=O)(=O)c1ccc(Cl)c(Cl)c1 [Compound 37, 3,4-Dichloro-N-((2 syn,3S)-2-hydroxy-4-phenyl-3-((S)-tetrahydrofuran-3-yloxycarbonylamino)-butyl)-N-isobutyl-benzenesulfonamide]",IC90,101 to 1000 nM
CC(C)CN(C[C@@H](O)[C@H](Cc1ccccc1)NC(=O)OCc1ccccc1)S(=O)(=O)c1ccc(F)cc1 [Compound 38],IC90,1000 to 10000 nM
CC(=O)Nc1ccc(S(=O)(=O)N(CC(C)C)C[C@@H](O)[C@H](Cc2ccccc2)NC(=O)OC(C)(C)C)cc1 [Compound 39],IC90,1000 to 10000 nM
"CC(=O)Nc1ccc(S(=O)(=O)N(CC(C)C)C[C@@H](O)[C@H](Cc2ccccc2)NC(=O)OCc2cccnc2)cc1 [Compound 44, N-(4-(((2 syn,3S)-2-Hydroxy-4-phenyl-3-(pyridin-3-yl-methoxycarbonylamino)-butyl)-isobutyl-sulfamoyl)-phenyl)-acetamide]",IC90,101 to 1000 nM
CC(C)CN(C[C@@H](O)[C@H](Cc1ccccc1)NC(=O)OC(C)(C)C)S(=O)(=O)c1ccccc1 [Compound 45],IC90,1000 to 10000 nM
"CC(=O)Nc1ccc(S(=O)(=O)N(CC(C)C)C[C@@H](O)[C@H](Cc2ccccc2)NC(=O)O[C@H]2CCOC2)cc1 [Compound 48, N-(4-(((2 syn,3S)-2-Hydroxy-4-phenyl-3-((S)-tetrahydrofuran-3-yloxycarbonylamino)-butyl)-isobutyl-sulfamoyl)-phenyl)-acetamide]",IC90,101 to 1000 nM
CC(C)CN(C[C@@H](O)[C@H](Cc1ccccc1)NC(=O)OC(C)(C)C)S(=O)(=O)c1ccc(F)cc1F [Compound 49],IC90,1000 to 10000 nM
CC(C)CN(C[C@@H](O)[C@H](Cc1ccccc1)NC(=O)O[C@H]1CCOC1)S(=O)(=O)c1ccc(-c2ccccn2)s1 [Compound 51],IC90,1000 to 10000 nM
CC(=O)Nc1cc(S(=O)(=O)N(CC(C)C)C[C@@H](O)[C@H](Cc2ccccc2)NC(=O)OC(C)(C)C)ccc1F [Compound 54],IC90,1000 to 10000 nM
CC(C)CN(C[C@@H](O)[C@H](Cc1ccccc1)NC(=O)O[C@H]1CCOC1)S(=O)(=O)c1cccc2nonc12 [Compound 60],IC90,1000 to 10000 nM
CC(=O)Nc1ccc(S(=O)(=O)N(CC(C)C)C[C@@H](O)[C@H](Cc2ccccc2)NC(=O)OCc2ccccc2)cc1 [Compound 61],IC90,1000 to 10000 nM
CC(C)CN(C[C@@H](O)[C@H](Cc1ccccc1)NC(=O)OCc1ccccc1)S(=O)(=O)c1ccc(N)c([N+](=O)[O-])c1 [Compound 63],IC90,1000 to 10000 nM
CC(C)CN(C[C@@H](O)[C@H](Cc1ccccc1)NC(=O)OC(C)(C)C)S(=O)(=O)c1ccc2nonc2c1 [Compound 64],IC90,1000 to 10000 nM
CC(C)CN(C[C@@H](O)[C@H](Cc1ccccc1)NC(=O)OCc1ccccc1)S(=O)(=O)c1ccc2nonc2c1 [Compound 65],IC90,1000 to 10000 nM
CC(C)CN(C[C@@H](O)[C@H](Cc1ccccc1)NC(=O)O[C@H]1CCOC1)S(=O)(=O)c1ccc2nonc2c1 [Compound 66],IC90,101 to 1000 nM
C=CCOC(=O)N[C@@H](Cc1ccccc1)[C@H](O)CN(CC(C)C)S(=O)(=O)c1ccc(Cl)c(Cl)c1 [Compound 81],IC90,1000 to 10000 nM
CC(C)CN(C[C@@H](O)[C@H](Cc1ccccc1)NC(=O)OCc1cccnc1)S(=O)(=O)c1ccc2nonc2c1 [Compound 82],IC90,1000 to 10000 nM
CC(C)(C)OC(=O)N[C@@H](Cc1ccccc1)[C@H](O)CN(CC1CCCC1)S(=O)(=O)c1ccc(Cl)c(Cl)c1 [Compound 84],IC90,1000 to 10000 nM
CC(C)CN(C[C@@H](O)[C@H](Cc1ccccc1)NC(=O)OCC1CCOC1)S(=O)(=O)c1ccc(Cl)c(Cl)c1 (stereo partly shown) [Compound 85],IC90,1000 to 10000 nM
"CC(=O)Nc1ccc(S(=O)(=O)N(CC(C)C)C[C@@H](O)[C@H](Cc2ccccc2)NC(=O)OC2CCOC2)cc1 (stereo partly drawn) [Compound 86, N-(4-(((2 syn,3S)-2-Hydroxy-4-phenyl-3-((R)-tetrahydrofuran-3-yloxycarbonylamino)-butyl)-isobutyl-sulfamoyl-phenyl)-acetamide and N-(4-(((2 syn,3S)-2-Hydroxy-4-phenyl-3-((S)-tetrahydrofuran-3-yloxycarbonylamino)-butyl)-isobutyl-sulfamoyl)-phenyl)-acetamide]",IC90,101 to 1000 nM
"CC(=O)Nc1cc(S(=O)(=O)N(CC(C)C)C[C@@H](O)[C@H](Cc2ccccc2)NC(=O)O[C@H]2CCOC2)ccc1F [Compound 88, N-(2-Fluoro-5-(((2 syn,3S)-2-hydroxy-4-phenyl-3-((S)-tetrahydrofuran-3-yloxycarbonylamino)-butyl)-isobutyl-sulfamoyl)-phenyl)-acetamide]",IC90,101 to 1000 nM
CCCOC(=O)N[C@@H](Cc1ccccc1)[C@H](O)CN(CC(C)C)S(=O)(=O)c1ccc(Cl)c(Cl)c1 [Compound 89],IC90,1000 to 10000 nM
"CC(=O)Nc1cccc(S(=O)(=O)N(CC(C)C)C[C@@H](O)[C@H](Cc2ccccc2)NC(=O)O[C@H]2CCOC2)c1 [Compound 91, N-(3-(((2 syn,3S)-2-Hydroxy-4-phenyl-3-((S)-tetrahydrofuran-3-yloxycarbonylamino)-butyl)-isobutyl-sulfamoyl)-phenyl)-acetamide]",IC90,101 to 1000 nM
"CC(C)CN(C[C@@H](O)[C@H](Cc1ccccc1)NC(=O)O[C@@H]1CCOC1)S(=O)(=O)c1ccc(F)cc1 [Compound 93, 4-Fluoro-N-((2 syn,3S)-2-hydroxy-4-phenyl-3-((R)-tetrahydrofuran-3-yloxycarbonylamino)-butyl)-N-isobutyl-benzenesulfonamide]",IC90,101 to 1000 nM
"CC(=O)Nc1ccc(S(=O)(=O)N(CC(C)C)C[C@@H](O)[C@H](Cc2ccccc2)NC(=O)O[C@@H]2CCOC2)cc1 [Compound 94, N-(4-(((syn)-2-Hydroxy-(S)-4-phenyl-3-((tetrahydro-furan-(R)-3-yl)-oxycarbonylamino)-butyl)-isobutyl-sulfamoyl)-phenyl)-acetamide]",IC90,101 to 1000 nM
CC(C)CN(C[C@@H](O)[C@H](Cc1ccccc1)NC(=O)O[C@H]1CCOC1)S(=O)(=O)c1cc(Cl)c(Cl)s1 [Compound 95],IC90,1000 to 10000 nM
"CC(C)CN(C[C@@H](O)[C@H](Cc1ccccc1)NC(=O)OCc1cccnc1)S(=O)(=O)c1ccc(F)cc1 [Compound 98, 4-Fluoro-N-((2 syn,3S)-2-hydroxy-4-phenyl-3-(pyridin-3-yl-methoxycarbonylamino)-butyl)-N-isobutyl-benzenesulfonamide]",IC90,101 to 1000 nM
